Test results taken from patent publication US12559504B2, “Benzotriazole derivative” (UBE CORPORATION, priority 2019, dated 2026).

Assays:
[1] = target: T1, GST fusion human Keap1 (amino acid residue: 325-624) protein (Homo sapiens, UniProt Q14145); assay: Keap1-Nrf2 binding inhibition test (fluorescence polarization); details: compound concentration of 100 nM; read-out: inhibition rate
T1 construct: GST fusion human Keap1 (amino acid residue: 325-624) protein; purchased Protein tech Ag0779
In short: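 Fluorescence polarization with FITC-labelled Nrf2 peptide (FITC-Ahx-LDEETGEFL-NH2) and GST-human Keap1 (325-624) in 20 mM Tris pH 7.5, 150 mM NaCl, 0.05% Tween 20, 5 mM DTT, BSA; 30 min at room temperature, ex 482/em 530 nm. Percent inhibition at 100 nM compound, Keap1-free wells = 100%.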

NQO1 [2] = assay: NQO1 enzyme induction test (in vitro) in Hepa1c1c7 cells; format: cell-based; details: Mus musculus, Hepa-1c1c7, 48 h, concentration to elevate the NQO1 activity by 1.5 times, about 48 hours, read-out: EC150
Protocol: Each NQO1 assay was carried out by modifying a known method (Anal Biochem 1998; 169: 328-, Methods Enzymol 2004; 382: 243-). Hepa1c1c7 cells (mouse hepatocyte line manufacture by DS Pharma Biomedical Co., Ltd., REF. No. 95090613) were cultured (5% CO2, 37° C.). The cells were cultured in MEMα (manufactured by FUJIFILM Wako Pure Chemical Corporation, REF. 135-15175) medium comprising 10% FBS (manufactured by GIBCO, REF. 10082) and […]/streptomycin/amphotericin B (manufactured by GIBCO, REF. 15240), and dispensed into a 96 well plate (manufactured by Costar, REF. 3610) at 2.0×10^3 cells/well. On the next day, test compound (final concentration of […]: 0.1%) dissolved into DMSO (manufactured by FUJIFILM Wako Pure Chemical Corporation, REF. 043-07216) was added to each well, and the plate was further cultured for about 48 hours.
A cell lysate manufactured by Cell signaling Technology, Inc. (REF. 9803) with the addition of a Protease Inhibitor manufactured by Roche Diagnostics K.K. (REF. 11-873580001) was used. A reaction solution (which is a solution comprising trishydrochloric acid (25 mM), albumin […], Tween-20 (0.01%), glucose-6-phosphate dehydrogenase (2 U/mL), flavin-adenine dinucleotide (5 μM), glucose-6-phosphate (1 μM), nicotinamide adenine dinucleotide phosphate (30 μM), 3-(4,5-dimethyl-2-thiazolyl)-2,5-diphenyltetrazolium bromide (MTT) (0.03%), and menadione (50 μM)), and a stop solution (which is a solution comprising dicumarol (0.3 mM) and potassium dihydrogen phosphate (5 mM), pH 7.4) were prepared. After the medium was removed, cell lysate (50 μL) was added thereto, and the resulting mixture was shaken at room temperature for 20 minutes. The reaction solution (200 μL) was added thereto, and the resulting mixture was left to stand at room temperature for 5 minutes. The stop solution (50 μL) was added thereto, and absorbance at 540 nm (reference 750 nm) was measured.
Cell number was measured by Cell Titer Glo assay (manufactured by Promega Corporation, REF. G9242) by using another plate prepared according to the same conditions as those described above, and correction of absorbance was carried out. The test result was analyzed by Excel, and the EC150 value which is the concentration to elevate the NQO1 activity by 1.5 times was calculated.

NQO1 [3] = assay: NQO1 expression induction test in mouse kidney (single administration); format: in vivo; details: Mus musculus, po, 6 h, BALB/c mouse kidney, 6 hours after administration, ratio to control group
In short: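 Female BALB/c mice received a single oral dose of compound in 0.5% methylcellulose, with untreated mice as controls. Six hours later, left-kidney NQO1 mRNA was measured by SYBR real-time RT-PCR normalised to GAPDH. Induction was expressed as the ratio of mean treated to mean control expression.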

[4] = Metabolism test using human liver microsome fractions; format: in vitro ADME; details: human liver microsomes, test compound 10 μmol/L, NADPH and UDP-glucuronic acid, 37° C.
In short: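 Compound depletion at 10 μmol/L final, 37 °C, followed by UV-HPLC of acetonitrile-quenched aliquots taken 0, 5, 10, 15, 20, 30 min; incubations contained microsomes (1 mg protein, human or monkey) with NADPH and UDPGA cofactors. Rate = slope over linear range.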

T1 sequence (Q14145 325-624): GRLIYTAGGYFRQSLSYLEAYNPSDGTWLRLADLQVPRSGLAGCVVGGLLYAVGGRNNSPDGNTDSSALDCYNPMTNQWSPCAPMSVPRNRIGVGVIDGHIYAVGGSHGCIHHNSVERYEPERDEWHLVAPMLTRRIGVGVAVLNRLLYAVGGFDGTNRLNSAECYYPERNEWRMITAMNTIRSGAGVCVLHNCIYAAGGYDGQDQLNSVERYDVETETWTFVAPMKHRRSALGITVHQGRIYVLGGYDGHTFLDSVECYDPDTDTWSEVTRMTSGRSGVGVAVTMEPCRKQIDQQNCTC

Structure (SMILES)	inhibition at 0.1 µM [1] [%]	EC (1.5-fold NQO1 activity) (NQO1 [2]) [µM]	fold induction at 10 mg/kg (NQO1 [3]; Dose 10 mg/kg)	Human metabolic rate [4]	fold induction at 30 mg/kg (NQO1 [3])	fold induction at 20 mg/kg (NQO1 [3]; Dose 20 mg/kg)
CC[C@@H]1CN(Cc2cc(C(c3ccc4c(nnn4C)c3C)C(C)(C)C(=O)O)ccc2C)Cc2ccccc2O1 (single isomer, unassigned) [Example C1, reference compound]	≥ 50	0.005 to 0.05	≤ 3	C (150≤metabolic rate<200 pmol/min/mg protein)	–	–
CC[C@@H]1CN(Cc2cc(C(c3ccc4c(nnn4C)c3C)C(C)(C)C(=O)O)ccc2C)Cc2cc3c(cc2O1)OC(F)(F)O3 (stereo partly drawn) [Example 1-(b), 3-(1,4-dimethyl-1H-benzo[d][1,2,3]triazol-5-yl)-3-(3-(((R)-6-ethyl-2,2-difluoro-6,7-dihydro-[1,3]dioxolo[4′,5′:4,5]benzo[1,2-f][1,4]oxazepin-8(9H)-yl)methyl)-4-methylphenyl)-2,2-dimethylpropanoic Acid]	≥ 50	0.0005 to 0.005	–	C (150≤metabolic rate<200 pmol/min/mg protein)	3 to 6	–
CC[C@@H]1CN(Cc2cc(C(c3ccc4c(nnn4C)c3C)C(C)(C)C(=O)O)ccc2C)Cc2ccc3c(c2O1)OC(F)(F)O3 (stereo partly drawn) [Example 2-(b), 3-(1,4-dimethyl-1H-benzo[d][1,2,3]triazol-5-yl)-3-(3-(((R)-9-ethyl-2,2-difluoro-8,9-dihydro-[1,3]dioxolo[4′,5′:3,4]benzo[1,2-f][1,4]oxazepin-7(6H)-yl)methyl)-4-methylphenyl)-2,2-dimethylpropanoic Acid]	≥ 50	0.0005 to 0.005	–	A (metabolic rate<100 pmol/min/mg protein)	3 to 6	–
CC[C@@H]1CN(Cc2cc(C(c3ccc4c(nnn4C)c3C)C(C)(C)C(=O)O)ccc2C)Cc2cc3c(cc2O1)CCC3 (stereo partly drawn) [Example 3-(b), 3-(1,4-dimethyl-1H-benzo[d][1,2,3]triazol-5-yl)-3-(3-(((R)-2-ethyl-2,3,5,7,8,9-hexahydro-4H-indeno[5,6-f][1,4]oxazepin-4-yl)methyl)-4-methylphenyl)-2,2-dimethylpropanoic Acid]	≥ 50	0.005 to 0.05	–	C (150≤metabolic rate<200 pmol/min/mg protein)	> 6	–
CC[C@@H]1CN(Cc2cc(C(c3ccc4c(nnn4C)c3C)C(C)(C)C(=O)O)ccc2C)Cc2cc3c(cc2O1)CCCC3 (stereo partly drawn) [Example 4-(b), 3-(1,4-dimethyl-1H-benzo[d][1,2,3]triazol-5-yl)-3-(3-(((R)-2-ethyl-2,3,7,8,9,10-hexahydronaphtho[2,3-f][1,4]oxazepin-4(5H)-yl)methyl)-4-methylphenyl)-2,2-dimethylpropanoic Acid]	≥ 50	0.005 to 0.05	–	B (100≤metabolic rate<150 pmol/min/mg protein)	> 6	–
CC[C@@H]1CN(Cc2cc(C(c3ccc4c(nnn4C)c3C)C(C)(C)C(=O)O)ccc2C)Cc2ccc3c(c2O1)CCC3 (stereo partly drawn) [Example 6-(b), 3-(1,4-dimethyl-1H-benzo[d][1,2,3]triazol-5-yl)-3-(3-(((R)-2-ethyl-2,3,5,8,9,10-hexahydro-4H-indeno[5,4-f][1,4]oxazepin-4-yl)methyl)-4-methylphenyl)-2,2-dimethylpropanoic Acid]	≥ 50	0.005 to 0.05	–	B (100≤metabolic rate<150 pmol/min/mg protein)	3 to 6	–
CC[C@@H]1CN(Cc2cc(C(c3ccc4c(nnn4C)c3C)C(C)(C)C(=O)O)ccc2C)Cc2ccc3c(c2O1)CCCC3 (stereo partly drawn) [Example 7-(b), 3-(1,4-dimethyl-1H-benzo[d][1,2,3]triazol-5-yl)-3-(3-(((R)-2-ethyl-2,3,8,9,10,11-hexahydronaphtho[2,1-f][1,4]oxazepin-4(5H)-yl)methyl)-4-methylphenyl)-2,2-dimethylpropanoic Acid]	≥ 50	0.005 to 0.05	–	B (100≤metabolic rate<150 pmol/min/mg protein)	3 to 6	–
CC[C@@H]1CN(Cc2cc(C(c3ccc4c(nnn4C)c3C)C(C)(C)C(=O)O)ccc2C)Cc2cc3ccccc3cc2O1 (stereo partly drawn) [Example 8-(b), 3-(1,4-dimethyl-1H-benzo[d][1,2,3]triazol-5-yl)-3-(3-(((R)-2-ethyl-2,3-dihydronaphtho[2,3-f][1,4]oxazepin-4(5H)-yl)methyl)-4-methylphenyl)-2,2-dimethylpropanoic Acid]	≥ 50	0.0005 to 0.005	–	A (metabolic rate<100 pmol/min/mg protein)	3 to 6	–
CC[C@@H]1CN(Cc2cc(C(c3ccc4c(nnn4C)c3C)C(C)(C)C(=O)O)ccc2C)Cc2cc3ccccc3nc2O1 (stereo partly drawn) [Example 9-(b), 3-(1,4-dimethyl-1H-benzo[d][1,2,3]triazol-5-yl)-3-(3-(((R)-2-ethyl-2,3-dihydro-[1,4]oxazepino[7,6-b]quinolin-4 (5H)-yl)methyl)-4-methylphenyl)-2,2-dimethylpropanoic Acid]	≥ 50	0.0005 to 0.005	–	D (200≤metabolic rate<250 pmol/min/me protein)	3 to 6	–
CC[C@@H]1CN(Cc2cc(C(c3ccc4c(nnn4C)c3C)C(C)(C)C(=O)O)ccc2C)Cc2nc3ccccc3cc2O1 (stereo partly drawn) [Example 10-(b), 3-(1,4-dimethyl-1H-benzo[d][1,2,3]triazol-5-yl)-3-(3-(((R)-2-ethyl-2,3-dihydro-[1,4]oxazepino[6,7-b]quinolin-4 (5H)-yl)methyl)-4-methylphenyl)-2,2-dimethylpropanoic Acid]	≥ 50	0.0005 to 0.005	–	C (150≤metabolic rate<200 pmol/min/mg protein)	> 6	–
CC[C@@H]1CN(Cc2cc(C(c3ccc4c(nnn4C)c3C)C(C)(C)C(=O)O)ccc2C)Cc2cc3cccnc3cc2O1 (stereo partly drawn) [Example 11-(b), 3-(1,4-dimethyl-1H-benzo[d][1,2,3]triazol-5-yl)-3-(3-(((R)-2-ethyl-2,3-dihydro-[1,4]oxazepino[6,7-g]quinolin-4(5H)-yl)methyl)-4-methylphenyl)-2,2-dimethylpropanoic Acid]	≥ 50	0.0005 to 0.005	–	D (200≤metabolic rate<250 pmol/min/me protein)	> 6	–
CC[C@@H]1CN(Cc2cc(C(c3ccc4c(nnn4C)c3C)C(C)(C)C(=O)O)ccc2C)Cc2ccc3ccncc3c2O1 (stereo partly drawn) [Example 62, 3-(1,4-dimethyl-1H-benzo[d][1,2,3]triazol-5-yl)-3-(3-(((R)-2-ethyl-2,3-dihydro-[1,4]oxazepino[6,7-h]isoquinolin-4 (5H)-yl)methyl)-4-methylphenyl)-2,2-dimethylpropanoic Acid]	≥ 50	0.0005 to 0.005	–	–	≤ 3	–
CC[C@@H]1CN(Cc2cc(C(c3ccc4c(nnn4C)c3C)C(C)(C)C(=O)O)ccc2C)Cc2cc(Cl)c3ccccc3c2O1 (stereo partly drawn) [Example 67-(b), 3-(3-(((R)-7-chloro-2-ethyl-2,3-dihydronaphtho[2,1-f][1,4]oxazepin-4 (5H)-yl)methyl)-4-methylphenyl)-3-(1,4-dimethyl-1H-benzo[d][1,2,3]triazol-5-yl)-2,2-dimethylpropanoic Acid]	≥ 50	0.005 to 0.05	–	–	–	≤ 3
